Article PMC13013135, “[^99mTc]Tc-PSMA-HSG for PSMA-targeted Hybrid Surgical Guidance: a new addition to the PSMA-I&S/I&T family” (European Journal of Nuclear Medicine and Molecular Imaging, 2025)
Read-outs that look alike come from different tables or passages of the source. Values belong to the molecule of their own block, whether it stands above or below them. Square brackets hold non-standard residues; d marks the D form. Peptide text beside a SMILES is read from it. * marks the point of attachment. X1 = O=C(O)CC[C@H](NC(=O)N[C@@H](CCCCNC(=O)CCCCCCC(=O)*)C(=O)O)C(=O)O; d2Nal = N[C@H](Cc1ccc2ccccc2c1)C(=O)O; Mercaptoacetyl = O=C(CS)*

Legend:
[1] = target: PSMA (Homo sapiens, UniProt Q04609); experiment: Competitive binding (IC50) on LNCaP cells with ([^125I]I-BA)KuE as radioligand; conditions: for IC50: LNCaP cells, ([^125I]I-BA)KuE radioligand, free mas3-chelator
Chain of PSMA (Q04609 whole entry): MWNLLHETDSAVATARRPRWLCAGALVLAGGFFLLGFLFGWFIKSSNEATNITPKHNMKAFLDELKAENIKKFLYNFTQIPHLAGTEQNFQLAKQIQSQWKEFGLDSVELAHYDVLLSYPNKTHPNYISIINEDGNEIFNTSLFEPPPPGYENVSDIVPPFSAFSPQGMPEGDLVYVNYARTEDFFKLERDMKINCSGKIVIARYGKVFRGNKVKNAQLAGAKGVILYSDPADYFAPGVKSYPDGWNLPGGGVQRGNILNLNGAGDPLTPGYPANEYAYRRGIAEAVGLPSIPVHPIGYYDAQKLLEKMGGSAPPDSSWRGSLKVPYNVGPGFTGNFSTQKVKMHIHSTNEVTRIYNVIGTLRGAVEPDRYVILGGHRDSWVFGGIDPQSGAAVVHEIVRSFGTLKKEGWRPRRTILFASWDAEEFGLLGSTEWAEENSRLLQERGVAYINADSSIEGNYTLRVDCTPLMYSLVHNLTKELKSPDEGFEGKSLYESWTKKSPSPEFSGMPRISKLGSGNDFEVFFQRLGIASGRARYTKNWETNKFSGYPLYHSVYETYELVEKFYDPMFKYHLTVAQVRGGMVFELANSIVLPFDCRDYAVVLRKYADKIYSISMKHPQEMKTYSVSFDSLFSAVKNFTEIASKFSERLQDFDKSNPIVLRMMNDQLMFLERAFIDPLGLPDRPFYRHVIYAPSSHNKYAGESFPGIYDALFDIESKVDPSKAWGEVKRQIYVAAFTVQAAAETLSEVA
Procedure: Competitive binding experiments (IC50) were carried out in accordance with an established protocol using PSMA-expressing LNCaP cells and ([^125I]I-BA)KuE as standard radioligand. […] Please see the Supplementary Material for experimental details. For IC50 determination, approximately 150.000 cells/well were seeded on 24-well plates one day prior to the experiment. For internalization studies, 125.000 cells/well in PDL-coated 24-well plates were used. Cell counting was carried out using a Corning cell counter (Cytosmart, Eindhoven, The Netherlands).

[2] = cited from earlier work
[3] = target: human serum albumin (HSA) (Homo sapiens, UniProt P02768); experiment: Plasma protein binding (B50), ultrafiltration, HSA; format: in vitro ADME
Chain of human serum albumin (HSA) (P02768 25-609): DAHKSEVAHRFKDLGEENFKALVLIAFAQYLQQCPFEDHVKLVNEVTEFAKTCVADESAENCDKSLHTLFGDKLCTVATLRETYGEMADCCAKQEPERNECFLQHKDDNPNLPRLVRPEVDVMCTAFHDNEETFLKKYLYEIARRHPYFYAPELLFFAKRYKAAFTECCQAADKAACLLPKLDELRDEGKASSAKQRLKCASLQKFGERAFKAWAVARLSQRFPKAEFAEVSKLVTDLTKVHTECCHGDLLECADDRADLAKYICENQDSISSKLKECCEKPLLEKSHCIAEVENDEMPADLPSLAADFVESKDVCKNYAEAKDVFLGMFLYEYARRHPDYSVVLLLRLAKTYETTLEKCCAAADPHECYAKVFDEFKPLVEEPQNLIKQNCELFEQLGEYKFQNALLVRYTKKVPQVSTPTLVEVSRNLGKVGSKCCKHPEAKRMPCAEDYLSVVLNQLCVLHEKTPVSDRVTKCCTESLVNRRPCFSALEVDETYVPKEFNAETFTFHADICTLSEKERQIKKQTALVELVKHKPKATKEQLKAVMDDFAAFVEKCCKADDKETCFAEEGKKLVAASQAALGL
Procedure: (§1) A detailed experimental procedure is provided in the Supplementary Material. […] Briefly, protein solutions (maximum concentration: […] Samples were briefly vortexed and incubated for 30 min at 37 °C. […] The filter units were then removed from the centrifugal tubes and washed twice with 300 µL PBS to recover the protein fraction. The activity in the filtrate, filter and protein fraction were then quantified using a γ-counter. […] The percentages of radioligand bound to the respective proteins are represented as means ± standard deviation (SD) of three independent experiments.

[4] = tested on: PSMA expressing LNCaP cells; experiment: Dual tracer internalization assay; format: cell-based, human; conditions: 60 min, 37 °C, 0.5 nM tracer, normalized to ([^125I]IBA)KuE
Procedure: Competitive binding experiments (IC50) were carried out in accordance with an established protocol using PSMA-expressing LNCaP cells and ([^125I]I-BA)KuE as standard radioligand. […] Please see the Supplementary Material for experimental details. […] The supernatant was removed, cells were washed with assay medium, and an acid wash (50 mM NaOAc in saline, pH 4.5) was performed to remove membrane-associated activity. Cells were then lysed using 1N NaOH, and internalized activity was quantified using a γ-counter. […] Tocris Bioscience, Bristol, UK) and normalized to the specific internalization observed for the radioiodinated reference compound in the same experiment. Data represent means ± SD (n=3) from three separate determinations.

[5] = tested on: mouse serum; experiment: Plasma protein binding (B50), ultrafiltration, mouse serum; format: in vitro ADME
Procedure: as §1

[6] = tested on: human serum; experiment: Plasma protein binding (B50), ultrafiltration, human serum; format: in vitro ADME
Procedure: as §1

[7] = Lipophilicity, modified shake-flask method; format: physicochemical
Procedure: The lipophilicity of [^99mTc]Tc-PSMA-HSG was determined via a modified shake-flask method as described.

[8] = tested on: LNCaP xenograft bearing NSG mice; experiment: Biodistribution in LNCaP xenograft bearing NSG mice; conditions: 6 h p.i., 0.1 nmol
Procedure: The biodistribution of [^99mTc]Tc-PSMA-HSG and of the reference compound [^99mTc]Tc-PSMA-I&S was investigated in LNCaP xenograft bearing NSG mice (see supplemental information).
Mice were injected intravenously with the respective ^99mTc-labeled tracer (24–34 MBq (fixed peptide dose of 1 nmol/mouse) or 3.7–7.6 MBq (fixed peptide doses of 0.1 nmol/mouse), respectively) and were sacrificed at 2 h (1 nmol-cohort) or 6 h p.i. (0.1 nmol-cohort), respectively. The organs of interest were dissected, and the activity concentration in weighed tissue samples was quantified using an AMG Automatic Gamma Counter (Hidex, Turku, Finland). Biodistribution data are given in %iD/g and represent means ± SD (groups of n = 5 animals). Statistical analysis (Multiple unpaired t-test) of biodistribution data and tumor/organ ratios was performed using GraphPad Prism (Boston, USA).
To induce LNCaP tumor growth, a suspension of LNCaP cells (approx. 5 x 10^6 cells/mouse) in 200 μl of a 1:1 mixture of serum-free DMEM and Matrigel (BD Biosciences) was injected subcutaneously into the right shoulder of male NOD scid gamma (NSG) mice (6-8 weeks, in-house breeding, Dpt. of Oncology, University of Lausanne). After approximately 9 weeks, tumor size reached 4-8 mm in diameter and the mice were used for the in vivo studies.

decrease in PSMA affinity compared to PSMA-HSG [1]: fifteen-fold reduction
SMILES: CC(=O)SCC(=O)N[C@H](CO)C(=O)N[C@H](CO)C(=O)N[C@H](CO)C(=O)N[C@H](CCCCNC(=O)CCCCCN1/C(=C/C=C/C=C/C2=[N+](C)c3ccc(S(=O)(=O)[O-])cc3C2(C)C)C(C)(C)c2cc(S(=O)(=O)O)ccc21)C(=O)N[C@H](Cc1ccc(O)cc1)C(=O)N[C@H](Cc1ccc2ccccc2c1)C(=O)N[C@H](CCCCNC(=O)CCCCCCC(=O)NCCCC[C@H](NC(=O)N[C@@H](CCCC(=O)O)C(=O)O)C(=O)O)C(=O)O [Aad-PSMA-HSG]

decrease in PSMA affinity compared to PSMA-HSG [1]: twofold decreased
IC50 [1]: 73.1 ± 11.1 nM
SMILES: CCN1/C(=C/C=C/C=C/C=C/C2=[N+](CCCCCC(=O)NCCCC[C@@H](NC(=O)[C@@H](CO)NC(=O)[C@@H](CO)NC(=O)[C@@H](CO)NC(=O)CSC(C)=O)C(=O)N[C@H](Cc3ccc(O)cc3)C(=O)N[C@H](Cc3ccc4ccccc4c3)C(=O)N[C@H](CCCCNC(=O)CCCCCCC(=O)NCCCC[C@H](NC(=O)N[C@@H](CCC(=O)O)C(=O)O)C(=O)O)C(=O)O)c3ccc(S(=O)(=O)[O-])cc3C2(C)C)C(C)(C)c2cc(S(=O)(=O)O)ccc21 [PSMA-HSG-Cy7-II]

decrease in PSMA affinity compared to PSMA-HSG [1]: twofold decreased
IC50 [1]: 70.7 ± 10.8 nM
SMILES: CC(=O)SCC(=O)N[C@H](CO)C(=O)N[C@H](CO)C(=O)N[C@H](CO)C(=O)N[C@H](CCCCNC(=O)CCCCC[N+]1=C(/C=C/C2=CC(=C/C=C3/N(C)c4ccc(S(=O)(=O)O)cc4C3(C)C)/CCC2)C(C)(C)c2cc(S(=O)(=O)[O-])ccc21)C(=O)N[C@H](Cc1ccc(O)cc1)C(=O)N[C@H](Cc1ccc2ccccc2c1)C(=O)N[C@H](CCCCNC(=O)CCCCCCC(=O)NCCCC[C@H](NC(=O)N[C@@H](CCC(=O)O)C(=O)O)C(=O)O)C(=O)O [PSMA-HSG-Cy7-I]

SMILES: O=C(O)CC[C@H](NC(=O)N[C@@H](CCCCNC(=O)c1ccc([18F])nc1)C(=O)O)C(=O)O [[^18F]DCFPyL]
effective dose ([2]; patients): 0.0165 mSv/MBq

SMILES: O=C([O-])CN(CCN(CC(=O)[O-])Cc1cc(CCC(=O)NCCCCCC(=O)NCCCC[C@H](NC(=O)N[C@@H](CCC(=O)O)C(=O)O)C(=O)O)ccc1[O-])Cc1cc(CCC(=O)O)ccc1[O-].[68Ga+3].[OH3+] [[^68Ga]Ga-PSMA-11]
effective dose ([2]; human, in vivo): 0.023 ± 0.004 mSv/MBq

SMILES: C[N+]1=C(/C=C/C2=CC(=C/C=C3/N(CCCCCC(=O)NCCCC[C@@H](NC(=O)[C@@H](CO)NC(=O)[C@@H](CO)NC(=O)[C@@H](CO)NC(=O)CS)C(=O)N[C@H](Cc4ccc(O)cc4)C(=O)N[C@H](Cc4ccc5ccccc5c4)C(=O)N[C@H](CCCCNC(=O)CCCCCCC(=O)NCCCC[C@H](NC(=O)N[C@@H](CCC(=O)O)C(=O)O)C(=O)O)C(=O)O)c4ccc(S(=O)(=O)[O-])cc4C3(C)C)/CCC2)C(C)(C)c2cc(S(=O)(=O)O)ccc21 [[^99mTc]Tc-PSMA-HSG-Cy7-I, metal not drawn]
B50 HSA [3]: 165 ± 21
internalization [% of reference] [4]: 17 ± 2 % of reference
B50 MS [5]: 93 ± 16
B50 HS [6]: 246 ± 27
logD [7]: -2.63

SMILES: CC[N+]1=C(/C=C/C=C/C=C/C=C2/N(CCCCCC(=O)NCCCC[C@@H](NC(=O)[C@@H](CO)NC(=O)[C@@H](CO)NC(=O)[C@@H](CO)NC(=O)CS)C(=O)N[C@H](Cc3ccc(O)cc3)C(=O)N[C@H](Cc3ccc4ccccc4c3)C(=O)N[C@H](CCCCNC(=O)CCCCCCC(=O)NCCCC[C@H](NC(=O)N[C@@H](CCC(=O)O)C(=O)O)C(=O)O)C(=O)O)c3ccc(S(=O)(=O)[O-])cc3C2(C)C)C(C)(C)c2cc(S(=O)(=O)O)ccc21 [[^99mTc]Tc-PSMA-HSG-Cy7-II, metal not drawn]
B50 HSA [3]: 149 ± 14
internalization [% of reference] [4]: 28 ± 7 % of reference
B50 MS [5]: 53 ± 7
B50 HS [6]: 121 ± 16
logD [7]: -2.71

SMILES: O=C(O)CC[C@H](NC(=O)N[C@@H](CCCCNC(=O)CCCCCCC(=O)NCCCC[C@@H](NC(=O)[C@@H](Cc1ccc2ccccc2c1)NC(=O)[C@@H](Cc1ccc(O)cc1)NC(=O)[C@@H](CO)NC(=O)[C@@H](CO)NC(=O)[C@@H](CO)NC(=O)CS)C(=O)O)C(=O)O)C(=O)O [[^99mTc]Tc-PSMA-I&S, [^99mTc]Tc-mas3-y-nal-k-Sub-KuE, metal not drawn, reference compound] (Mercaptoacetyl-[dS][dS][dS][dY][d2Nal][dK](X1)-OH)
B50 HSA ([3]; HSA in PBS, molar excess of protein over radioligand for half-maximal binding, n = 3): 324 ± 6
absorbed dose coefficient of the urinary bladder wall ([2]; patients): 0.000355 mGy/MBq
effective dose ([2]; patients): 0.0052 mSv/MBq
kidney absorbed dose coefficient ([2]; patients): 0.0733 mGy/MBq
salivary gland absorbed dose coefficient ([2]; patients): 0.0221 mGy/MBq
B50 MS ([5]; mouse serum, molar excess of protein over radioligand for half-maximal binding, n = 3): 652 ± 77
B50 HS ([6]; human serum, molar excess of protein over radioligand for half-maximal binding, n = 3): 321 ± 18
lipophilicity [logD] [7]: −3.01
biodistribution, LNCaP tumor [8]: 12.9 ± 1.4 %iD/g
biodistribution, blood [8]: 0.15 ± 0.03 %iD/g
biodistribution, heart [8]: 0.24 ± 0.05 %iD/g
biodistribution, intestines [8]: 1.8 ± 0.8 %iD/g
biodistribution, kidneys [8]: 147.0 ± 10 %iD/g
biodistribution, liver [8]: 0.8 ± 0.4 %iD/g
biodistribution, lung [8]: 2.2 ± 0.2 %iD/g
biodistribution, muscle [8]: 0.2 ± 0.04 %iD/g
biodistribution, pancreas [8]: 0.7 ± 0.1 %iD/g
biodistribution, salivary glands [8]: 3.2 ± 0.8 %iD/g
biodistribution, spleen [8]: 14.2 ± 2.0 %iD/g
biodistribution, stomach [8]: 0.3 ± 0.1 %iD/g
